Data taken from BindingDB's records for doi:10.1021/jm048962u (The Burnham Institute, 2005).
pIC50, pKi: −log10 of the molar value.

Target: RAC-alpha serine/threonine-protein kinase (Homo sapiens, UniProt P31749)
Assay: Z-LYTE Kinase Assy
Conditions: pH 7.5; 25 °C
Text: The Z-LYTE assay (Invitrogen Corporation) employs a FRET-based, coupled-enzyme format and is based on the differential sensitivity of phosphorylated and non-phosphorylated peptides to proteolytic cleavage. A site-specific protease recognizes and cleaves nonphosphorylated peptides. […] Cleavage disrupts FRET between the donor (coumarin) and acceptor (fluorescein) fluorophores on the peptide, whereas uncleaved, phosphorylated peptides maintain FRET. The ratio of donor emission to acceptor emission after excitation of the donor fluorophore at 400 nm, quantitates reaction progress.

Sequence of RAC-alpha serine/threonine-protein kinase (P31749 whole entry): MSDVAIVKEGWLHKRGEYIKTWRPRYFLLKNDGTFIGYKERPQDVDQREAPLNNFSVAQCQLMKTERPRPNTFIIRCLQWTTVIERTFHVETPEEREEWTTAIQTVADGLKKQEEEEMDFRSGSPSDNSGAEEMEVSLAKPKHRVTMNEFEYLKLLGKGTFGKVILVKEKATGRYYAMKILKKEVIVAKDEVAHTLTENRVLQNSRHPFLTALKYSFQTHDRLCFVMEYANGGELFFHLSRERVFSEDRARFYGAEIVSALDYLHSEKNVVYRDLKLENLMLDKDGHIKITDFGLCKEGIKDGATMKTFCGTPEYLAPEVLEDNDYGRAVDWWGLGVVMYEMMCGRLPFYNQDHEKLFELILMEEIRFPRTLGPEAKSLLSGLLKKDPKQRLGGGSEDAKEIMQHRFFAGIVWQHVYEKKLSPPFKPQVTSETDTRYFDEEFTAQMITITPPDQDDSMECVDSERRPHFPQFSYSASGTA

With `C=c1c(C#N)c2[nH]c(N)c(C#N)c(C)c-2c1=Cc1ccc(-c2ccc(C(=O)O)c(Cl)c2)o1` the pIC50 was 5.59 and the pKi was 5.96.

`C=c1c(C#N)c2[nH]c(N)c(C#N)c(C)c-2c1=Cc1ccc(-c2cccc(C(=O)O)c2)o1` [3-(5-{[(5E)-2-amino-3,7-dicyano-4,6-dimethyl-5H-cyclopenta[b]pyridin-5-ylidene]methyl}furan-2-yl)benzoic acid] gave a pIC50 of 4.22.
